Data set [1] can be described thus: Positive inotropic activity in perfused rabbit left atrium assessed as increase in stroke volume at 10 uM. It counts as functional, Oryctolagus cuniculus, Cardiac atrium.
Data set [2] is described as follows: Chronotropic activity in perfused rabbit left atrium assessed as change in heart rate (RVB = 92.52 +/- 017 beats/mins). In kind it is tissue-based, Oryctolagus cuniculus, Cardiac atrium.
The species named for another data set is Oryctolagus cuniculus. Kind of data set: Positive inotropic activity in perfused rabbit left atrium assessed as increase in stroke volume. It counts as functional, tissue-based. The note with it: Cardiac atrium.
A short description of data set [3]: Chronotropic activity in perfused rabbit left atrium assessed as change in heart rate (RVB = 102.31 +/- 0.07 beats/mins). It counts as tissue-based, Oryctolagus cuniculus, Cardiac atrium.
Data set [4] is described as follows: Chronotropic activity in perfused rabbit left atrium assessed as change in heart rate (RVB = 89.51 +/- 0.09 beats/mins). It counts as tissue-based, Oryctolagus cuniculus, Cardiac atrium.
Data set [5] is described as follows: Chronotropic activity in perfused rabbit left atrium assessed as change in heart rate (RVB = 105.33 +/- 0.12 beats/mins). In kind it is tissue-based, Oryctolagus cuniculus, Cardiac atrium.

Molecules are shown by their SMILES.

The values below come from ChEMBL document CHEMBL1208722, “Synthesis of 2-(4-substituted benzyl-1,4-diazepan-1-yl)-N-(3,4-dihydro-3-oxo-2H-benzo[b][1,4]oxazin-7-yl)acetamides and their positive inotropic evaluation” (Bioorg Med Chem Lett, 2010).

Turning to `Cc1[nH]c(=O)c(C#N)cc1-c1ccncc1` [MILRINONE], in data set [1], the Activity is 2.38%. Consider `COc1cccc(CN2CCN(CC(=O)Nc3ccc4c(c3)OCC(=O)N4)CC2)c1`, for which the Activity in data set [1] came to 3.96%.

`COc1ccc(CN2CCCN(CC(=O)Nc3ccc4c(c3)OCC(=O)N4)CC2)cc1`: the Activity in data set [1] is reported as 3.22%; in data set [2], 89.37 bpm.

For `O=C(CN1CCCN(Cc2ccccc2Br)CC1)Nc1ccc2c(c1)OCC(=O)N2`, the Activity was 7.68% in data set [1], “Dose-dependent effect” in the data set filed under Oryctolagus cuniculus and 98.64 bpm in data set [3].

`COc1cc(CN2CCCN(CC(=O)Nc3ccc4c(c3)OCC(=O)N4)CC2)ccc1OCc1ccc(Cl)cc1`: the Activity amounted to 2.87% in data set [1] and 80.02 bpm in data set [4]. For `O=C(CN1CCCN(Cc2ccccc2F)CC1)Nc1ccc2c(c1)OCC(=O)N2`, the results for the Activity in data set [1] and in data set [5] were 6.05% and 102.88 bpm, respectively.
